From patent publication EP3064205A1, “Therapeutic use of isomeric forms of 2-(4-chlorophenyl)quinolin-4-yl)(piperidin-2-yl)methanol” (Glionova AB, priority 2015, dated 2016)
Read-outs that look alike come from different tables or passages of the source.

Columns and labels:
Test in all cases: 3D clonogenic assay (PDX)
Type in all cases: cell-based, human
PRXF MRI-H-1579 = conditions: PRXF MRI-H-1579, Prostate; for IC50: Homo sapiens
Method in brief: (§1)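 Soft-agar colony formation, xenograft-derived cells (NMRI nu/nu passaged), 10-pt dilution 50 µM–0.0015 µM in duplicate, continuous drug overlay from 24 h post-plating. Incubation 8–13 d, 37 °C, 7.5% CO2. INT stain 24 h before automated colony count; relative or absolute (T/C = 50%) IC50 by 4-parameter fit.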

LXFE 397 = conditions: LXFE 397, Lung Epidermoid; for IC50: Homo sapiens
Method in brief: as §1

RXF 1781 = conditions: RXF 1781, Renal; for IC50: Homo sapiens
Method in brief: as §1

MAXF 713 = conditions: MAXF 713, Breast; for IC50: Homo sapiens
Method in brief: as §1

MAXF 1322 = conditions: MAXF 1322, Breast; for IC50: Homo sapiens
Method in brief: as §1

OVXF 1544 = conditions: OVXF 1544, Ovarian; for IC50: Homo sapiens
Method in brief: as §1

GXF 251 = conditions: GXF 251, Gastric; for IC50: Homo sapiens
Method in brief: as §1

PAXF 1872 = conditions: PAXF 1872, Pancreas; for IC50: Homo sapiens
Method in brief: as §1

OVXF 899 = conditions: OVXF 899, Ovarian; for IC50: Homo sapiens
Method in brief: as §1

LXFL 1072 = conditions: LXFL 1072, Lung Large Cell; for IC50: Homo sapiens
Method in brief: as §1

MEXF 1792 = conditions: MEXF 1792, Melanoma; for IC50: Homo sapiens
Method in brief: as §1

LXFA 629 = conditions: LXFA 629, Lung Adeno; for IC50: Homo sapiens
Method in brief: as §1

**Q.** `O[C@H](c1cc(-c2ccc(Cl)cc2)nc2ccccc12)[C@@H]1CCCCN1` [S1, (R)-(2-(4-chlorophenyl)quinolin-4-yl)((S)-piperidin-2-yl)methanol] was tested. Which IC50 (PRXF MRI-H-1579; read-out: abs. IC50) did it give?
**A.** 8.94 µM

**Q.** And the IC50 (PRXF MRI-H-1579; read-out: rel. IC50)?
**A.** 8.76 µM

**Q.** What about the “b (bottom plateau of concentration-effect curve)” value (PRXF MRI-H-1579) of the same compound?
**A.** 21

**Q.** What about the “t (top plateau of concentration-effect curve)” value (PRXF MRI-H-1579) of the same compound?
**A.** 112

**Q.** What about the IC50 (LXFE 397; read-out: abs. IC50) of the same compound?
**A.** 5.14 µM

**Q.** What about the IC50 (LXFE 397; read-out: rel. IC50) of the same compound?
**A.** 4.77 µM

**Q.** What about the “b (bottom plateau of concentration-effect curve)” value (LXFE 397) of the same compound?
**A.** 35

**Q.** And the “t (top plateau of concentration-effect curve)” value (LXFE 397)?
**A.** 100

**Q.** What about the IC50 (RXF 1781; read-out: abs. IC50) of the same compound?
**A.** 11.1 µM

**Q.** What about the IC50 (RXF 1781; read-out: rel. IC50) of the same compound?
**A.** 11.1 µM

**Q.** What about the “b (bottom plateau of concentration-effect curve)” value (RXF 1781) of the same compound?
**A.** 8

**Q.** And the “t (top plateau of concentration-effect curve)” value (RXF 1781)?
**A.** 112

**Q.** What about the IC50 (MAXF 713; read-out: abs. IC50) of the same compound?
**A.** 9.16 µM

**Q.** And the IC50 (MAXF 713; read-out: rel. IC50)?
**A.** 8.6 µM

**Q.** And the “b (bottom plateau of concentration-effect curve)” value (MAXF 713)?
**A.** 43

**Q.** What about the “t (top plateau of concentration-effect curve)” value (MAXF 713) of the same compound?
**A.** 108

**Q.** What about the IC50 (MAXF 1322; read-out: abs. IC50) of the same compound?
**A.** 4.77 µM

**Q.** What about the IC50 (MAXF 1322; read-out: rel. IC50) of the same compound?
**A.** 3.82 µM

**Q.** What about the “b (bottom plateau of concentration-effect curve)” value (MAXF 1322) of the same compound?
**A.** 21

**Q.** And the “t (top plateau of concentration-effect curve)” value (MAXF 1322)?
**A.** 93

**Q.** What about the IC50 (OVXF 1544; read-out: abs. IC50) of the same compound?
**A.** 13.5 µM

**Q.** And the IC50 (OVXF 1544; read-out: rel. IC50)?
**A.** 12.8 µM

**Q.** And the “b (bottom plateau of concentration-effect curve)” value (OVXF 1544)?
**A.** 22

**Q.** What about the “t (top plateau of concentration-effect curve)” value (OVXF 1544) of the same compound?
**A.** 107

**Q.** What about the “b (bottom plateau of concentration-effect curve)” value (GXF 251) of the same compound?
**A.** 34

**Q.** What about the “t (top plateau of concentration-effect curve)” value (GXF 251) of the same compound?
**A.** 111

**Q.** And the IC50 (GXF 251; read-out: abs. IC50)?
**A.** 6.02 µM

**Q.** And the IC50 (GXF 251; read-out: rel. IC50)?
**A.** 5.26 µM

**Q.** What about the IC50 (PAXF 1872; read-out: abs. IC50) of the same compound?
**A.** 9.3 µM

**Q.** What about the IC50 (PAXF 1872; read-out: rel. IC50) of the same compound?
**A.** 8.89 µM

**Q.** And the “b (bottom plateau of concentration-effect curve)” value (PAXF 1872)?
**A.** 42

**Q.** And the “t (top plateau of concentration-effect curve)” value (PAXF 1872)?
**A.** 89

**Q.** What about the IC50 (OVXF 899; read-out: abs. IC50) of the same compound?
**A.** 6.38 µM

**Q.** What about the IC50 (OVXF 899; read-out: rel. IC50) of the same compound?
**A.** 6.16 µM

**Q.** And the “b (bottom plateau of concentration-effect curve)” value (OVXF 899)?
**A.** 18

**Q.** And the “t (top plateau of concentration-effect curve)” value (OVXF 899)?
**A.** 100

**Q.** What about the IC50 (LXFL 1072; read-out: abs. IC50) of the same compound?
**A.** 7.6 µM

**Q.** What about the IC50 (LXFL 1072; read-out: rel. IC50) of the same compound?
**A.** 7.58 µM

**Q.** What about the “b (bottom plateau of concentration-effect curve)” value (LXFL 1072) of the same compound?
**A.** 0

**Q.** What about the “t (top plateau of concentration-effect curve)” value (LXFL 1072) of the same compound?
**A.** 101

**Q.** And the IC50 (MEXF 1792; read-out: abs. IC50)?
**A.** 6.19 µM

**Q.** What about the IC50 (MEXF 1792; read-out: rel. IC50) of the same compound?
**A.** 6.15 µM

**Q.** What about the “b (bottom plateau of concentration-effect curve)” value (MEXF 1792) of the same compound?
**A.** 5

**Q.** And the “t (top plateau of concentration-effect curve)” value (MEXF 1792)?
**A.** 99

**Q.** And the IC50 (LXFA 629; read-out: abs. IC50)?
**A.** 9.09 µM

**Q.** What about the IC50 (LXFA 629; read-out: rel. IC50) of the same compound?
**A.** 8.85 µM

**Q.** And the “b (bottom plateau of concentration-effect curve)” value (LXFA 629)?
**A.** 26

**Q.** And the “t (top plateau of concentration-effect curve)” value (LXFA 629)?
**A.** 108
